Laboratory results taken from patent US11046660B2, “Compounds and their use as PDE4 activators” (MIRONID LIMITED, priority 2016, dated 2021).
Values belong to the molecule of their own block, whether it stands above or below them.

Legend:
Format in all cases: biochemical
full-length human PDE4D5 = molecular target: T1, full-length human PDE4D5 (Homo sapiens, UniProt Q08499); test: PDE4D5 long form enzyme activation radio-assay (Experiment 1, Protocol A or B); conditions: for activation at 30 µM: mean % increase in counts over basal activity
T1 construct: stably expressed the full-length human PDE4D5, PDE4A4 and PDE4B1 long isoforms; made in house; cytosol fraction of cell lysate
T1 sequence (Q08499 1-745 isoform Q08499-6): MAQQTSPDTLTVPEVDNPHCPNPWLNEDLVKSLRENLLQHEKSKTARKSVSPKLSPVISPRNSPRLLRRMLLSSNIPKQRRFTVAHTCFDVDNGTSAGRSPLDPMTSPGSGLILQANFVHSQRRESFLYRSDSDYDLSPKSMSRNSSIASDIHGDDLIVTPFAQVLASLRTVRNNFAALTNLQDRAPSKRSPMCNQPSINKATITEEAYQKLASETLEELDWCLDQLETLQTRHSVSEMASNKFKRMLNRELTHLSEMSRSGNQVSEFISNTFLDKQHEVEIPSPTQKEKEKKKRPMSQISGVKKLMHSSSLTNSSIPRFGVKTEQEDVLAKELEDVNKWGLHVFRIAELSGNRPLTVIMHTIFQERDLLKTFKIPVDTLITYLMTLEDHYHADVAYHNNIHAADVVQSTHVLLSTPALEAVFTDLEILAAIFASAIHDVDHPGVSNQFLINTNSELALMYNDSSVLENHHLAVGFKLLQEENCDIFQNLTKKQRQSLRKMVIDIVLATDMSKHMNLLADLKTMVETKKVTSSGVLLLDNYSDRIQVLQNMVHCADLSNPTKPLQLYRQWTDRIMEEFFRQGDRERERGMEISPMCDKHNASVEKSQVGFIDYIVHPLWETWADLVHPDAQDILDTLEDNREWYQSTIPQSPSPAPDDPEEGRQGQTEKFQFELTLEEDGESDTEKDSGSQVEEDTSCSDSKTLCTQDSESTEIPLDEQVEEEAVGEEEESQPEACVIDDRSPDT
Source text: (§1) Experiment 1: Identification of PDE4 Long Form Activators of the Present Invention Using Full-Length Human PDE4 Isoforms PDE4D5, PDE4A4, PDE4B1 and PDE4B2
(§2) HEK 293 cells were transfected with pDEST™ PDE4 expression vectors using Lipofectamine LTX/Plus reagent (Invitrogen) as outlined by the manufacturer and clonal isolates expanded to obtain cell lines that stably expressed the full-length human PDE4D5, PDE4A4 and PDE4B1 long isoforms and the full length human PDE4B2 short isoform. These were called the HEK-PDE4D5, HEK-PDE4A4, HEK-PDE4B1 and HEK-PDE4B2 cell lines, respectively.
(§3) HEK-PDE4D5 cells were seeded out in 100 mm plates and incubated at 37° C. in an atmosphere of 5% CO2, 95% air. Cell lysates were prepared using KHEM buffer [50 mM KCl, 10 mM EGTA, 50 mM HEPES (pH 7.2), 1.92 mM MgCl2].
(§4) To prepare the cell lysates, the 100 mm plates containing the cells were placed on ice and washed with ice-cold PBS (phosphate buffered saline, pH 7.4). KHEM buffer (500 μl) was added to the cells. Cells were then scraped off the plate and triturated using a needle (BD Microlance™ 0.8, 40 mm). The lysed cells were then centrifuged at 2000 rpm for 10 minutes to remove cell debris and the supernatant (cell lysate containing recombinant PDE4D5) was transferred to a fresh tube and kept on ice.
(§5) The cell lysate containing recombinant PDE4D5 was transferred into a centrifuge tube and placed into an ultracentrifuge (BECKMAN COULTER) and spun at high speed (100,000 g) for 30 minutes at 4° C. The cytosol fraction was then collected and its protein amount determined using a BCA protein assay.
(§6) PDE assays were performed using a final concentration of 10 mM Tris/5 mM MgCl2 and 1 μM [^3H]-cAMP (Perkin Elmer) plus PDE4D5 cell lysate cytosol fraction, containing over-expressed PDE4D5, with and without test compound. Incubations were performed at 30° C. for 5 minutes. The samples were then placed in a boiling water bath for 2 minutes to denature the PDE enzyme, and returned to ice. Samples were allowed to cool for 10 min after which snake venom 5′-nucleotidase (25 μl, 1 mg/ml; Sigma) was added. The tubes were vortexed and incubated in a water bath at 30° C. for 10 minutes, to attain conversion of [^3H]-5′-AMP to [^3H]-adenosine, and then placed on ice. Dowex ion exchange resin (Sigma) prepared as a 1:1 Dowex: water stock was thoroughly re-suspended and diluted 2:1 with ethanol. The resulting Dowex suspension (0.4 ml) was added to each tube. Tubes were vortexed to mix and then incubated on ice for at least 15 minutes before a final vortex. The Dowex resin was pelleted by centrifugation at 13,000 g at 4° C. for 3 minutes and 150 μl of the supernatant was removed to an Eppendorf tube containing 1 ml of ScintiSafe3 scintillation fluid (Fisher). Tubes were vortexed thoroughly to mix and the recovered [^3H]-adenosine was quantified by measuring counts over 1 minute in a scintillation counter.
(§7) The % increase in counts in the presence of test compound at a particular concentration indicates the % increase in enzyme activity at that concentration.
(§8) PDE assays were performed in thin walled V-bottomed 96-well plates. The assays were performed at a final concentration of 10 mM Tris/5 mM MgCl2 plus PDE4D5 cell lysate cytosol fraction, containing over-expressed PDE4D5, with and without test compound. The lysate/compound mix were incubated together for 15 min at room temperature on an orbital shaker prior to addition of [^3H] cAMP (final concentration 1 μM [^3H] cAMP; Perkin Elmer) to a final volume of 50 μl per reaction. The reactions were then incubated for 10 minutes at 30° C., terminated by heating for 2 min at 95° C. and allowed to cool. Snake venom (12.5 μl of 1 mg/ml; Crotalus atrox, Sigma) was then added and the plates were agitated and incubated for a further 15 minutes at 30° C. […]

full-length human PDE4B1 = molecular target: T2, full-length human PDE4B1 (Homo sapiens, UniProt Q07343); test: PDE4B1 long form enzyme activation radio-assay (Experiment 1, Protocol A or B); conditions: mean % increase in counts over basal activity
T2 construct: stably expressed the full-length human PDE4D5, PDE4A4 and PDE4B1 long isoforms; made in house; cytosol fraction of cell lysate
T2 sequence (Q07343 whole entry, canonical isoform): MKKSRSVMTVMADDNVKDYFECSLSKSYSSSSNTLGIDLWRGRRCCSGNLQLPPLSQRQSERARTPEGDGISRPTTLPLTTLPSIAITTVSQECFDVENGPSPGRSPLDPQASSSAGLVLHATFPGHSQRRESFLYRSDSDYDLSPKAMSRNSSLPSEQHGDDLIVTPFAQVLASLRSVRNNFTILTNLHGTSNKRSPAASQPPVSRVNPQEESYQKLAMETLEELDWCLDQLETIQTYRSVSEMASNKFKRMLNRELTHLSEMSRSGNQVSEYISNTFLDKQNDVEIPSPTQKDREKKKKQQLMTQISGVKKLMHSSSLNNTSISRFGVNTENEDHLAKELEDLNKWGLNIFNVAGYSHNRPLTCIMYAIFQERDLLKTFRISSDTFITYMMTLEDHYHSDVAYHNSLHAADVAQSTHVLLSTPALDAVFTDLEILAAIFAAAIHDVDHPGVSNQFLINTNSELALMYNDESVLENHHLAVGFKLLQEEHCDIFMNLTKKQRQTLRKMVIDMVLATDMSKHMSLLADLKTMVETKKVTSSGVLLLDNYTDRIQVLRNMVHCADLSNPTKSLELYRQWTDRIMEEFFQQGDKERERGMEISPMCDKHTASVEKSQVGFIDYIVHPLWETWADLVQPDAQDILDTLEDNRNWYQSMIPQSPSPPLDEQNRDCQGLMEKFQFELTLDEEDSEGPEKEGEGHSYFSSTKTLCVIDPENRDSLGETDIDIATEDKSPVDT
Source text: as §1, §2, §3, §4, §5, §6, §7, §8

full-length human PDE4B2 = molecular target: T3, full-length human PDE4B2 (Homo sapiens, UniProt Q07343); test: PDE4B2 short form enzyme activation radio-assay (Experiment 1, Protocol A or B); conditions: for activation at 30 µM: mean % increase in counts over basal activity
T3 construct: and the full length human PDE4B2 short isoform; made in house; cytosol fraction of cell lysate
T3 sequence (Q07343 1-564 isoform Q07343-2): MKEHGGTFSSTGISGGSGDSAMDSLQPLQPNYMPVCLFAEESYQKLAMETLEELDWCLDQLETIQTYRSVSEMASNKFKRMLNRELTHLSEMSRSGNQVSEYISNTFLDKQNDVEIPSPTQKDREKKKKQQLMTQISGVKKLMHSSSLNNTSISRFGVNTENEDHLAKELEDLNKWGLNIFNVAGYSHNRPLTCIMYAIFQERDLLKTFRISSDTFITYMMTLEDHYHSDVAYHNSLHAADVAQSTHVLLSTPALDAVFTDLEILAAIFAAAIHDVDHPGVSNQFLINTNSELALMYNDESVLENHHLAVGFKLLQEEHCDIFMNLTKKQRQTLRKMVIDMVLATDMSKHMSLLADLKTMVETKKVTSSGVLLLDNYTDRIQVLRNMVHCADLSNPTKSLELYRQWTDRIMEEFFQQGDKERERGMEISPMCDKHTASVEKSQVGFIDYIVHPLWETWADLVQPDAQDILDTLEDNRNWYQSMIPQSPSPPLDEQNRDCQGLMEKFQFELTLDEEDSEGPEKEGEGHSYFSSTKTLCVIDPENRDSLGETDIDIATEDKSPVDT
Source text: as §1, §2, §3, §4, §5, §6, §7, §8

SMILES: COc1cccc(CNC(=O)Cn2nc(-c3ccc(Cl)c(F)c3)nc2C(N)=O)c1 [Example 9, 3-(4-chloro-3-fluorophenyl)-1-{[(3-methoxybenzyl)carbamoyl]methyl}-1H-1,2,4-triazole-5-carboxamide]
activation at 30 µM (full-length human PDE4B1; Protocol A): 58.5%

SMILES: O=C(Cn1nc(-c2ccc(Cl)c(F)c2)nc1C(=O)NC1CCCCC1)NCc1cccc(F)c1 [Example 22, 3-(4-chloro-3-fluorophenyl)-1-{[(3-fluorobenzyl)carbamoyl]methyl}-N-cyclohexyl-1H-1,2,4-triazole-5-carboxamide]
activation at 30 µM (full-length human PDE4D5; Protocol B): 53.1%

SMILES: COC(=O)c1cc(-c2cccc(OC)c2)nn1CC(=O)NCc1cccc(F)c1 [Example 24, Methyl 1-{[(3-fluorobenzyl)carbamoyl]methyl}-3-(3-methoxyphenyl)-1H-pyrazole-5-carboxylate]
activation at 30 µM (full-length human PDE4D5; Protocol B): 87.4%

SMILES: CCOC(=O)c1nc(-c2ccc(Cl)c(F)c2)nn1CC(=O)NCc1ccccc1 [Example 2, Ethyl 1-[(benzylcarbamoyl)methyl]-3-(4-chloro-3-fluorophenyl)-1H-1,2,4-triazole-5-carboxylate]
activation at 30 µM (full-length human PDE4D5; Protocol A): 92.9%
activation of PDE4 long form PDE4D5 (in words) (full-length human PDE4D5; Protocol A, FIG. 1(a)): dose dependent activation
activation at 30 µM (full-length human PDE4B2; Protocol A): -2.5%
activation of PDE4 short form PDE4B2 (in words) (full-length human PDE4B2; Protocol A, FIG. 1(b)): lack of activation

SMILES: CNC(=O)c1nc(-c2ccc(Cl)c(F)c2)nn1CC(=O)NCc1cccc(F)c1 [Example 10, 3-(4-chloro-3-fluorophenyl)-1-{[(3-fluorobenzyl)carbamoyl]methyl}-N-methyl-1H-1,2,4-triazole-5-carboxamide]
activation at 30 µM (full-length human PDE4B1; Protocol B): 85.1%
activation at 30 µM (full-length human PDE4B2; Protocol B): 23.3%

SMILES: COc1cccc(CNC(=O)Cn2nc(-c3ccc(Cl)c(F)c3)nc2C(=O)NC(C)C)c1 [Example 17, 3-(4-chloro-3-fluorophenyl)-1-{[(3-methoxybenzyl)carbamoyl]methyl}-N-isopropyl-1H-1,2,4-triazole-5-carboxamide]
activation at 30 µM (full-length human PDE4D5; Protocol B): 81.1%

SMILES: CCc1nc(-c2ccc(Cl)c(F)c2)cn1CC(=O)NCc1cc(Cl)cc(Cl)c1 [Example 30, 2-[4-(4-chloro-3-fluorophenyl)-2-ethyl-1H-imidazol-1-yl]-N-(3,5-dichlorobenzyl) acetamide]
activation at 30 µM (full-length human PDE4D5; Protocol B): 87.6%

SMILES: CNC(=O)c1cc(-c2ccc(Cl)c(F)c2)nn1CC(=O)NCc1cccc(OC)c1 [Example 25, 3-(4-chloro-3-fluorophenyl)-1-{[(3-methoxybenzyl)carbamoyl]methyl}-N-methyl-1H-pyrazole-5-carboxamide]
activation at 30 µM (full-length human PDE4D5; Protocol B): 39.5%
activation at 30 µM (full-length human PDE4B2; Protocol B): 21%

SMILES: CN(C)C(=O)c1nc(-c2ccc(Cl)c(F)c2)nn1CC(=O)NCc1cccc(F)c1 [Example 11, 3-(4-chloro-3-fluorophenyl)-1-{[(3-fluorobenzyl)carbamoyl]methyl}-N,N-dimethyl-1H-1,2,4-triazole-5-carboxamide]
activation at 30 µM (full-length human PDE4B1; Protocol A): 84.1%

SMILES: COc1cccc(CNC(=O)Cn2nc(-c3ccc(Cl)c(F)c3)nc2C(=O)N(C)C)c1 [Example 18, 3-(4-chloro-3-fluorophenyl)-1-{[(3-methoxybenzyl)carbamoyl]methyl}-N,N-dimethyl-1H-1,2,4-triazole-5-carboxamide]
activation at 30 µM (full-length human PDE4D5; Protocol B): 83.9%

The remaining lines, values ahead:

activation at 30 µM (full-length human PDE4D5; Protocol B): 84.1%
SMILES: CCNC(=O)c1nc(-c2ccc(Cl)c(F)c2)nn1CC(=O)NCc1cccc(F)c1 [Example 19, 3-(4-chloro-3-fluorophenyl)-1-{[(3-fluorobenzyl)carbamoyl]methyl}-N-ethyl-1H-1,2,4-triazole-5-carboxamide]

activation at 30 µM (full-length human PDE4D5; Protocol B): 63.3%
activation at 30 µM (full-length human PDE4B2; Protocol B): -22.4%
SMILES: COCCNC(=O)c1nc(-c2ccc(Cl)c(F)c2)nn1CC(=O)NCc1cccc(F)c1 [Example 20, 3-(4-chloro-3-fluorophenyl)-1-{[(3-fluorobenzyl)carbamoyl]methyl}-N-(2-methoxyethyl)-1H-1,2,4-triazole-5-carboxamide]

activation at 30 µM (full-length human PDE4D5; Protocol A): 62.6%
activation at 30 µM (full-length human PDE4B2; Protocol A): -0.9%
SMILES: COC(=O)c1nc(-c2ccc(Cl)c(F)c2)nn1CC(=O)NCc1ccccc1 [Example 3, Methyl 1-[(benzylcarbamoyl)methyl]-3-(4-chloro-3-fluorophenyl)-1H-1,2,4-triazole-5-carboxylate]

activation at 30 µM (full-length human PDE4B1; Protocol A): 50.9%
SMILES: NC(=O)c1nc(-c2ccc(Cl)c(F)c2)nn1CC(=O)NCc1cccc(F)c1 [Example 8, 3-(4-chloro-3-fluorophenyl)-1-{[(3-fluorobenzyl)carbamoyl]methyl}-1H-1,2,4-triazole-5-carboxamide]

activation at 30 µM (full-length human PDE4B1; Protocol B): 44%
SMILES: CCOC(=O)c1nc(-c2ccc(Cl)c(F)c2)nn1CC(=O)NCc1cccc(OC)c1 [Example 5, Ethyl 3-(4-chloro-3-fluorophenyl)-1-{[(3-methoxybenzyl)carbamoyl]methyl}-1H-1,2,4-triazole-5-carboxylate]

activation at 30 µM (full-length human PDE4D5; Protocol B): 93.7%
SMILES: CCOC(=O)c1cc(-c2ccc(Cl)cc2)nn1CC(=O)NCc1cccc(F)c1 [Example 23, Ethyl 3-(4-chlorophenyl)-1-{[(3-fluorobenzyl)carbamoyl]methyl}-1H-pyrazole-5-carboxylate]

activation at 30 µM (full-length human PDE4B1; Protocol B): 52.2%
SMILES: COc1cccc(CNC(=O)Cn2nc(-c3ccc(Cl)c(F)c3)nc2C#N)c1 [Example 16, 2-[3-(4-chloro-3-fluorophenyl)-5-cyano-1H-1,2,4-triazol-1-yl]-N-(3-methoxybenzyl)acetamide]

activation at 30 µM (full-length human PDE4B1; Protocol B): 89.2%
SMILES: CNC(=O)c1nc(-c2ccc(Cl)c(F)c2)nn1CC(=O)NCc1cccc(OC)c1 [Example 12, 3-(4-chloro-3-fluorophenyl)-1-{[(3-methoxybenzyl)carbamoyl]methyl}-N-methyl-1H-1,2,4-triazole-5-carboxamide]

activation at 30 µM (full-length human PDE4D5; Protocol B): 31.9%
SMILES: CCc1nc(-c2ccc(Cl)c(F)c2)nn1CC(=O)NCc1cnc[nH]1 [Example 29, N-[(1H-imidazol-5-yl)methyl]-2-[3-(4-chloro-3-fluorophenyl)-5-ethyl-1H-1,2,4-triazol-1-yl]acetamide]

activation at 30 µM (full-length human PDE4D5; Protocol B): 75.1%
activation at 30 µM (full-length human PDE4B2; Protocol B): 7.6%
SMILES: CCOC(=O)c1cc(-c2ccc(Cl)cc2)nn1CC(=O)NCc1cccc(OC)c1 [Example 27, Ethyl 3-(4-chlorophenyl)-1-{[(3-methoxybenzyl)carbamoyl]methyl}-1H-pyrazole-5-carboxylate]

activation at 30 µM (full-length human PDE4D5; Protocol B): 38.2%
activation at 30 µM (full-length human PDE4B2; Protocol B): 17.1%
SMILES: CNC(=O)c1cc(-c2ccc(Cl)c(F)c2)nn1CC(=O)NCc1cccc(F)c1 [Example 26, 3-(4-chloro-3-fluorophenyl)-1-{[(3-fluorobenzyl)carbamoyl]methyl}-N-methyl-1H-pyrazole-5-carboxamide]

activation at 30 µM (full-length human PDE4D5; Protocol B): 105%
SMILES: COCCNC(=O)c1nc(-c2ccc(Cl)c(F)c2)nn1CC(=O)NCc1cccc(OC)c1 [Example 21, 3-(4-chloro-3-fluorophenyl)-1-{[(3-methoxybenzyl)carbamoyl]methyl}-N-(2-methoxyethyl)-1H-1,2,4-triazole-5-carboxamide]

activation at 30 µM (full-length human PDE4B1; Protocol B): 80.5%
SMILES: CCOC(=O)c1nc(-c2ccc(Cl)c(F)c2)nn1CC(=O)NCc1cccc(F)c1 [Example 4, Ethyl 3-(4-chloro-3-fluorophenyl)-1-{[(3-fluorobenzyl)carbamoyl]methyl}-1H-1,2,4-triazole-5-carboxylate]
